Measurements from patent US20220202964A1, “HEPARANASE COMPOUNDS AND METHODS OF USE” (University of Florida Research Foundation, Incorporated, priority 2019, published 2022).
Read-outs that look alike come from different tables or passages of the source.

Key:
[1] = pH profile of fluorescence / pKa; format: physicochemical; settings: hydrolytic product of HADP, fluorescence vs pH
Procedure: So, pH profiles of the fluorophore DiFMU and Compound 1 (HADP) were evaluated. […] In contrast, the pKa of 4-methylumbelliferone is ca. 7.8. […] Moreover, the introduction of the fluorine substituents increased the quantum yield and improved the photostability, enabling highly sensitive detection for heparanase.

heparanase [2] = molecular target: T1, heparanase (Homo sapiens, UniProt Q9Y251); assay: Activation of compounds by recombinant heparanase (fluorescence response); format: biochemical; settings: 5 μM compound, 1 μg heparanase, 40 mM NaOAc buffer (pH 5.0), 37° C., λex/em=365 nm/455 nm
T1 sequence (Q9Y251 36-543): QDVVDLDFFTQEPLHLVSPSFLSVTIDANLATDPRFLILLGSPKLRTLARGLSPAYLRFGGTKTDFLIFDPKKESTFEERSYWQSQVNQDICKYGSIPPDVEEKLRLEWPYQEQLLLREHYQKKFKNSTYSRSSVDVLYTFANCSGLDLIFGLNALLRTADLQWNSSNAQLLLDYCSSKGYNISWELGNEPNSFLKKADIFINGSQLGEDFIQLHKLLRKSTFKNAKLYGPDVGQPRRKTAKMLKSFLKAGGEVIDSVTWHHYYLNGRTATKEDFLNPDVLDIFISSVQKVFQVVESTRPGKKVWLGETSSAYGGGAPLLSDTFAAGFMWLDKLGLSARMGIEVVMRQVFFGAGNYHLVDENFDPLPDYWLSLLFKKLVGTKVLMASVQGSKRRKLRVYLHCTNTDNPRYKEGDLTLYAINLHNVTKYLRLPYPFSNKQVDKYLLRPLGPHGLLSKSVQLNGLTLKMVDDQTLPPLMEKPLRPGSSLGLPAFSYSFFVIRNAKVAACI
Procedure: To a solution of 20 μL, of 50 μM compound 1 (HADP) and 160 μL 40 mM NaOAc (pH=5.0) was added 20 μL, 0.1 μg/μL heparanase to obtain 5 μM 1 (HADP) with 2 μg heparanase solution. After incubation at 37° C. for 2 h, the reaction solution was transferred to quartz cuvettes to measure absorbance or fluorescence. Absorbance spectrum scan range from 250 nm to 500 nm (1 nm increment). fluorescence spectrum setting: λex=365 nm, Slit Width 2.5 nm. Emission was record from 400 nm to 600 nm, Slit Width 5 nm. Absorption spectra were recorded on Shimadzu UV-2700 UV-VIS Spectrophotometer. Fluorescence spectra were recorded on Fluorolog TAU-3 Spectrofluorometer with a xenon lamp (Jobin Yvon-Spex, Instruments S. A., Inc.)
Fluorescence micro cells was charged with 20 μL, of 50 μM compound 1 (HADP) and 160 μL 40 mM NaOAc (pH=5.0). Then 20 μL, 0.05 μg/μL heparanase was added to the above solution. Fluorescence spectra were recorded from 0 min to 3 h. fluorescence spectrum setting: λex=365 nm, Slit Width 2.5 nm. Emission was record from 400 nm to 600 nm, Slit Width 5 nm.
To a solution of 20 μL, of 50 μM each compound and 160 μL, 40 mM NaOAc (pH=5.0) was added 20 μL, 0.05 μg/μL heparanase to obtain 5 μM each compound with 1 μg heparanase solution in 96-well microplate. Each compound was performed in triplicate. Then the microplate was sealed with sealing film and incubated at 37° C. Fluorescence intensity was recorded on Spectramax M5 Multimode plate reader (Molecular Devices, USA) at each timepoint. λex/em=365 nm/455 nm.
5 μM compound 1 (HADP) was incubated with various biological species at the indicated amount/concentration in 96-well microplate. Cysteine (5 mM), Glutathione (5 mM), H2O2 (100 μM), Esterase, Chondroitinase ABC, Hyaluronidase, Lysozyme, β-Glucuronidase, β-Glucosidase (5 μg each) and heparanase (2 μg). For Chondroitinase ABC and Hyaluronidase, 50 μg was also tested. Each sample was performed in triplicates. Then the microplate was sealed with sealing film and incubated at 37° C. for 4 hours. Fluorescence intensity was recorded on Spectramax M5 Multimode plate reader (Molecular Devices, USA). λex/em=365 nm/455 nm.

heparanase [3] = molecular target: T1, heparanase; assay: HPLC analysis of compounds 1-4 with heparanase; format: biochemical; settings: 5 μM, heparanase 1 μg, 4 hours, 37° C., NaOAc pH 5.0
Procedure: Heparanase (1 μg, 20 μL) was added to the compounds 1-4 solution (180 μL, 5 μM) in 40 mM NaOAc buffer (pH 5.0) and the mixture was incubated for 4 hours at 37° C. The resulting mixtures were injected into HPLC for analysis. HPLC analysis was performed under the following conditions—mobile phase A: water with 0.1% TFA; B: acetonitrile with 0.1% TFA; 0-20 min: gradient elution, 25-95% B. The trace was monitored by DAD detector at 315 nm.

heparanase [4] = molecular target: T1, heparanase; settings: substrate for heparanase, comparison value; cited from earlier work
[5] = stated for comparison; cited from earlier work

Compound	fluorescence response towards heparanase (heparanase [2])	cleavage by heparanase (HPLC trace) (heparanase [3])	further results
Cc1cc(=O)oc2c(F)c(O)c(F)cc12 [DiFMU, 6,8-difluoro-7-hydroxy-4-methylcoumarin, reference compound]			pKa [1]: ~4.7
(2S,3S,4R,5R,6S)-6-((8-(difluoromethyl)-4-methyl-2-oxo-2H-chromen-7-yl)oxy)-3-(((2R,3R,4R,5S,6R)-3-((hydrosulfonyloxy)amino)-4,5-dihydroxy-6-(hydroxymethyl)tetrahydro-2H-pyran-2-yl)oxy)-4,5-dihydroxytetrahydro-2H-pyran-2-carboxylic acid [Compound 3]	very slight fluorescence enhancement	could not be cleaved by heparanase	
(2S,3S,4R,5R,6S)-3-(((2R,3R,4R,5S,6R)-4,5-dihydroxy-6-((sulfooxy)methyl)-3-(((E)-trioxidaneyl-14-sulfaneylidene)amino)tetrahydro-2H-pyran-2-yfloxy)-4,5-dihydroxy-6-((4-methyl-2-oxo-2H-chromen-7-yl)oxy)tetrahydro-2H-pyran-2-carboxylic acid [Compound 4]	could not be activated by heparanase	could not be cleaved by heparanase	
CO[C@H]1O[C@H](COS(=O)(=O)O)[C@@H](O[C@@H]2O[C@@H](C(=O)O)[C@@H](O[C@H]3O[C@H](COS(=O)(=O)O)[C@@H](O[C@@H]4O[C@H](C(=O)O)[C@@H](O[C@H]5O[C@H](COS(=O)(=O)O)[C@@H](O)[C@H](O)[C@H]5NS(=O)(=O)O)[C@H](O)[C@H]4O)[C@H](OS(=O)(=O)O)[C@H]3NS(=O)(=O)O)[C@H](O)[C@H]2OS(=O)(=O)O)[C@H](O)[C@H]1NS(=O)(=O)O [fondaparinux]			Km (heparanase [4]): 46 µM
Cc1cc(=O)oc2cc(O)ccc12 [4-methylumbelliferone]			pKa [5]: ca. 7.8
